{"source": "patent EP0386920A2", "about": "“2-Hydroxy-3-thienyloxypropylamino derivatives” (IMPERIAL CHEMICAL INDUSTRIES PLC, priority 1989, dated 1990)", "key": {"Rats [1]": {"test_system": "Rats", "test": "test (c): metabolic rate (oxygen consumption) in cold-adapted rats", "format": "in vivo", "conditions": "at 1mgkg⁻¹ p.o., closed-circuit oxygen consumption apparatus"}, "BAT mitochondria": {"test_system": "BAT mitochondria", "test": "test (a): GDP binding in brown adipose tissue (BAT) mitochondria of cold-adapted rats as a measure of thermogenic activation", "format": "in vivo", "conditions": "Rattus norvegicus, sc, 1 h, sub-cutaneous (s.c), BAT removed one hour after dosing, relative to isoprenaline 1 mg/kg, read-out: ED₅₀ (dose necessary to produce 50% of the isoprenaline effect on GDP binding)"}, "Rats [2]": {"test_system": "Rats", "test": "test (b): heart rate in rats adapted to a thermoneutral environment (D500 dose and selectivity index)"}}}
{"smiles": "COC(=O)COc1ccc(CCNCC(O)COc2ccsc2)cc1", "note": "(racemic) [Example 1, Methyl 4-[2-(2-hydroxy-3-(3-thienyloxy)propylamino)ethyl]phenoxyacetate]", "values": [{"measurement": "increase in metabolic rate", "setting": "Rats [1]", "result": 5.2, "unit": "ml O₂ min⁻¹Kg ^0.75"}, {"measurement": "ED50", "setting": "BAT mitochondria", "result": 0.2, "unit": "mg/kg"}, {"measurement": "SI (selectivity index, ratio of D₅₀₀ to ED₅₀ in test (a))", "setting": "Rats [2]; s.c", "result": "> 100"}]}
{"smiles": "CC(C)NCC(O)c1ccc(O)c(O)c1", "note": "(stereo not shown) [isoprenaline, reference compound]", "values": [{"measurement": "SI (selectivity index, ratio of D₅₀₀ to ED₅₀ in test (a))", "setting": "Rats [2]; route not stated", "result": 0.06}]}
